Experiments:
human DHODH = human DHODH (Homo sapiens (Human), UniProt Q02127); assay: DHODH Enzymatic Assay; assay type: biochemical; conditions: purified human DHODH, DCIP absorbance, end-point mode; read-out: hDHODH IC50
Procedure, shortened: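 Purified human DHODH in […] HEPES pH 7.5, 150 mM NaCl, 0.5 mM EDTA, 0.1% Triton X-100; reaction started with substrate mix of 20 mM DHO, 5 mM CoQ6, 1 mM DCIP. End-point read as DCIP reduction (absorbance ~600 nm) after brequinar quench.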

[1] = system: MOLM-13 cells (human acute myeloid leukemia cells); assay: MOLM-13 Cellular Assay; assay type: cell-based; conditions: Homo sapiens, MOLM-13, 72 h, 72 hours exposure, cell viability by CellTiter-Glo
Procedure, shortened: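 MOLM-13 AML cells, seeded at 5,000/well in RPMI 1640 with 10% FBS, were treated with compounds right after seeding for 72 h at 37 °C, 5% CO2. Viability read by CellTiter-Glo luminescence.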

human DHODH, sequence (Q02127 whole entry): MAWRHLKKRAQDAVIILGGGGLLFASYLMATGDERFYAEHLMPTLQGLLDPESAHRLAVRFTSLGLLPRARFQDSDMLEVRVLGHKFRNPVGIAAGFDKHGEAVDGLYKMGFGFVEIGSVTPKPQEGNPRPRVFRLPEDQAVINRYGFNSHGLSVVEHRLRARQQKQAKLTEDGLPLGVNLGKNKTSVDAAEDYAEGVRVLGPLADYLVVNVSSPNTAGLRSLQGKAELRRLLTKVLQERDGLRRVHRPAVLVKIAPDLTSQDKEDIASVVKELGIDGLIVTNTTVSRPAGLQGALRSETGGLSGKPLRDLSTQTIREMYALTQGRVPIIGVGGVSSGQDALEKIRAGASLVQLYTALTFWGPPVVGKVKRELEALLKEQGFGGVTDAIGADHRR

| Compound | IC50 (human DHODH) [nM] | IC50 [1] [nM] |
| --- | --- | --- |
| CCn1c(CO)nn(-c2cc3c(C(C)C)cn(-c4scnc4C)c(=O)c3cc2F)c1=O [Example 39, 6-(4-Ethyl-3-(hydroxymethyl)-5-oxo-4,5-dihydro-1H-1,2,4-triazol-1-yl)-7-fluoro-4-isopropyl-2-(4-methylthiazol-5-yl)isoquinolin-1(2H)-one] | 13 | 40 |
| CCn1c(CO)nn(-c2nc3c(C(C)C)cn(-c4ccccc4C)c(=O)c3cc2F)c1=O [Example 40, 2-(4-Ethyl-3-(hydroxymethyl)-5-oxo-4,5-dihydro-1H-1,2,4-triazol-1-yl)-3-fluoro-8-isopropyl-6-(o-tolyl)-1,6-naphthyridin-5(6H)-one] | 0.802 | 0.8 |
| CCn1c(CO)nn(-c2cc3c(C(C)C)cn(-c4cc(C)ccc4F)c(=O)c3cc2F)c1=O [Example 41, 6-(4-Ethyl-3-(hydroxymethyl)-5-oxo-4,5-dihydro-1H-1,2,4-triazol-1-yl)-7-fluoro-2-(2-fluoro-5-methylphenyl)-4-isopropylisoquinolin-1(2H)-one] | 2.98 | 2 |
| C=C(C)c1cn(-c2cc(C)ccc2F)c(=O)c2cc(F)c(-n3nc(CO)n(CC)c3=O)cc12 [Example 42, 6-(4-Ethyl-3-(hydroxymethyl)-5-oxo-4,5-dihydro-1H-1,2,4-triazol-1-yl)-7-fluoro-2-(2-fluoro-5-methylphenyl)-4-(prop-1-en-2-yl)isoquinolin-1(2H)-one] | 1.69 | 0.9 |
| C=C(C)c1cn(-c2cc(C)ccc2Cl)c(=O)c2cc(F)c(-n3nc(CO)n(CC)c3=O)cc12 [Example 43, 2-(2-Chloro-5-methylphenyl)-6-(4-ethyl-3-(hydroxymethyl)-5-oxo-4,5-dihydro-1H-1,2,4-triazol-1-yl)-7-fluoro-4-(prop-1-en-2-yl)isoquinolin-1(2H)-one] | 0.917 | 0.4 |
| C=C(C)c1cn(-c2cc(OC)ccc2F)c(=O)c2cc(F)c(-n3nc(CO)n(CC)c3=O)cc12 [Example 44, 6-(4-Ethyl-3-(hydroxymethyl)-5-oxo-4,5-dihydro-1H-1,2,4-triazol-1-yl)-7-fluoro-2-(2-fluoro-5-methoxyphenyl)-4-(prop-1-en-2-yl)isoquinolin-1(2H)-one] | 2.22 | 0.7 |
| C=C(C)c1cn(-c2ccccc2Cl)c(=O)c2cc(F)c(-n3nc(CO)n(CC)c3=O)cc12 [Example 45, 2-(2-Chlorophenyl)-6-(4-ethyl-3-(hydroxymethyl)-5-oxo-4,5-dihydro-1H-1,2,4-triazol-1-yl)-7-fluoro-4-(prop-1-en-2-yl)isoquinolin-1(2H)-one] | 1.41 | 0.3 |
| C=C(C)c1cn(-c2ccccc2C)c(=O)c2cc(F)c(-n3nc(CO)n(CC)c3=O)cc12 [Example 46, 6-(4-Ethyl-3-(hydroxymethyl)-5-oxo-4,5-dihydro-1H-1,2,4-triazol-1-yl)-7-fluoro-4-(prop-1-en-2-yl)-2-(o-tolyl)isoquinolin-1(2H)-one] | 0.746 | 0.3 |
| C=C(C)c1cn(-c2cc(OC)ccc2Cl)c(=O)c2cc(F)c(-n3nc(CO)n(CC)c3=O)cc12 [Example 47, 2-(2-Chloro-5-methoxyphenyl)-6-(4-ethyl-3-(hydroxymethyl)-5-oxo-4,5-dihydro-1H-1,2,4-triazol-1-yl)-7-fluoro-4-(prop-1-en-2-yl)isoquinolin-1(2H)-one] | 1.21 | 0.7 |
| CCn1c(CO)nn(-c2cc3c(C(C)C)cn(-c4nc(OC)ccc4Cl)c(=O)c3cc2F)c1=O [Example 49, 2-(3-Chloro-6-methoxypyridin-2-yl)-6-(4-ethyl-3-(hydroxymethyl)-5-oxo-4,5-dihydro-1H-1,2,4-triazol-1-yl)-7-fluoro-4-isopropylisoquinolin-1(2H)-one] | 1.09 | 2 |
| CCn1c(CO)nn(-c2cc3c(C(C)C)cn(-c4c(C)ccnc4OC)c(=O)c3cc2F)c1=O [Example 50, 6-(4-Ethyl-3-(hydroxymethyl)-5-oxo-4,5-dihydro-1H-1,2,4-triazol-1-yl)-7-fluoro-4-isopropyl-2-(2-methoxy-4-methylpyridin-3-yl)isoquinolin-1(2H)-one] | 2.75 | 7 |

— patent US11505536B2, “Dihydroorotate dehydrogenase inhibitors” (Janssen Biotech, Inc., priority 2019, dated 2022)
